Test results from ChEMBL document CHEMBL1201862, “PubChem BioAssay data set” (2004).
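Cultured in 96-well plates, cells were exposed to test compound for 48 hours across five concentrations. GI50 = concentration required for 50% inhibition of growth.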 Calls of active or inactive are those of the source. No stated cut-off is given here; in the data, active = GI50 up to about 1.1 µM and inactive = higher.

Experiments:
Experiment in all cases: growth of human tumour cells (NCI), 48 h
HCT-15 = tested on: HCT-15
HOP-92 = tested on: HOP-92
RXF 393 = tested on: RXF 393
ACHN = tested on: ACHN
IGROV-1 = tested on: IGROV-1
NCI/ADR-RES = tested on: NCI/ADR-RES
Malme-3M = tested on: Malme-3M
COLO 205 = tested on: COLO 205
HOP-62 = tested on: HOP-62
PC-3 = tested on: PC-3
U-251 = tested on: U-251
UACC-62 = tested on: UACC-62
SF-268 = tested on: SF-268
MOLT-4 = tested on: MOLT-4
OVCAR-8 = tested on: OVCAR-8
OVCAR-4 = tested on: OVCAR-4
SK-OV-3 = tested on: SK-OV-3
SNB-75 = tested on: SNB-75
DU-145 = tested on: DU-145
TK-10 = tested on: TK-10
CAKI-1 = tested on: CAKI-1
RPMI-8226 = tested on: RPMI-8226
OVCAR-3 = tested on: OVCAR-3
UO-31 = tested on: UO-31
OVCAR-5 = tested on: OVCAR-5
HL-60 = tested on: HL-60
M14 = tested on: M14
BT-549 = tested on: BT-549
EKVX = tested on: EKVX
NCI-H522 = tested on: NCI-H522
NCI-H23 = tested on: NCI-H23
SK-MEL-28 = tested on: SK-MEL-28
MDA-MB-435 = tested on: MDA-MB-435
Hs-578T = tested on: Hs-578T
786-0 = tested on: 786-0
UACC-257 = tested on: UACC-257
SK-MEL-5 = tested on: SK-MEL-5
SN12C = tested on: SN12C
HCC 2998 = tested on: HCC 2998
NCI-H226 = tested on: NCI-H226
SW-620 = tested on: SW-620
NCI-H460 = tested on: NCI-H460
A498 = tested on: A498
SK-MEL-2 = tested on: SK-MEL-2
SNB-19 = tested on: SNB-19
HT-29 = tested on: HT-29
SF-539 = tested on: SF-539
SF-295 = tested on: SF-295
T47D = tested on: T47D
MDA-MB-231 = tested on: MDA-MB-231
KM12 = tested on: KM12
LOX IMVI = tested on: LOX IMVI
MCF7 = tested on: MCF7
CCRF-CEM = tested on: CCRF-CEM
K562 = tested on: K562
SR = tested on: SR
HCT-116 = tested on: HCT-116

For Cc1cc(=O)nc(S(=O)(=O)NC(=S)Nc2ccc(Br)cc2)[nH]1, the GI50 (HCT-15) was 75.9 µM, the GI50 (HOP-92) was 21 µM (inactive) and the GI50 (RXF 393) was 20.5 µM (inactive). The GI50 (ACHN) was > 100 µM (inactive), the GI50 (IGROV-1) was 73.1 µM (inactive) and the GI50 (NCI/ADR-RES) was > 100 µM (inactive). The GI50 (Malme-3M) was > 100 µM (inactive), the GI50 (COLO 205) was > 100 µM (inactive) and the GI50 (HOP-62) was > 100 µM (inactive). For the same molecule, the GI50 (PC-3) was > 100 µM (inactive), the GI50 (U-251) was > 100 µM (inactive) and the GI50 (UACC-62) was > 100 µM (inactive). The GI50 (SF-268) was > 100 µM (inactive), the GI50 (MOLT-4) was 36 µM (inactive) and the GI50 (OVCAR-8) was > 100 µM (inactive). The GI50 (OVCAR-4) was 93.5 µM (inactive), the GI50 (SK-OV-3) was > 100 µM (inactive) and the GI50 (SNB-75) was > 100 µM (inactive). For the same molecule, the GI50 (DU-145) was > 100 µM (inactive), the GI50 (TK-10) was > 100 µM (inactive) and the GI50 (CAKI-1) was 65.6 µM (inactive). The GI50 (RPMI-8226) was 33.4 µM (inactive), the GI50 (OVCAR-3) was > 100 µM (inactive) and the GI50 (UO-31) was > 100 µM (inactive). For the same molecule, the GI50 (OVCAR-5) was > 100 µM (inactive), the GI50 (HL-60) was > 100 µM (inactive) and the GI50 (M14) was > 100 µM (inactive). The GI50 (BT-549) was > 100 µM (inactive), the GI50 (EKVX) was 42.1 µM (inactive) and the GI50 (NCI-H522) was 18.6 µM (inactive). The GI50 (NCI-H23) was > 100 µM (inactive), the GI50 (SK-MEL-28) was > 100 µM (inactive) and the GI50 (MDA-MB-435) was > 100 µM (inactive). For the same molecule, the GI50 (Hs-578T) was > 100 µM (inactive), the GI50 (786-0) was > 100 µM (inactive) and the GI50 (UACC-257) was > 100 µM (inactive). The GI50 (SK-MEL-5) was > 100 µM (inactive), the GI50 (SN12C) was > 100 µM (inactive) and the GI50 (HCC 2998) was > 100 µM (inactive). The GI50 (NCI-H226) was > 100 µM (inactive), the GI50 (SW-620) was > 100 µM (inactive) and the GI50 (NCI-H460) was > 100 µM (inactive). The GI50 (A498) was > 100 µM (inactive), the GI50 (SK-MEL-2) was > 100 µM (inactive) and the GI50 (SNB-19) was > 100 µM (inactive). The GI50 (HT-29) was > 100 µM (inactive), the GI50 (SF-539) was > 100 µM (inactive) and the GI50 (SF-295) was > 100 µM (inactive). For the same molecule, the GI50 (T47D) was > 100 µM (inactive) and the GI50 (MDA-MB-231) was > 100 µM (inactive).
For COc1ccc(Oc2nc3c(N)cc(C(F)(F)F)cc3nc2-c2ccccc2)cc1, the GI50 (HCT-15) was 31.6 µM, the GI50 (HOP-92) was 40.8 µM (inactive) and the GI50 (KM12) was 12.8 µM (inactive). The GI50 (RXF 393) was 11.6 µM (inactive), the GI50 (ACHN) was 28.2 µM (inactive) and the GI50 (IGROV-1) was 13.6 µM (inactive). For the same molecule, the GI50 (NCI/ADR-RES) was 27.2 µM (inactive), the GI50 (COLO 205) was 12.8 µM (inactive) and the GI50 (LOX IMVI) was 17.3 µM (inactive). For the same molecule, the GI50 (HOP-62) was 22.8 µM (inactive), the GI50 (PC-3) was 19.8 µM (inactive) and the GI50 (MCF7) was 11.6 µM (inactive). The GI50 (CCRF-CEM) was 38.4 µM (inactive), the GI50 (U-251) was 35.6 µM (inactive) and the GI50 (UACC-62) was 31.4 µM (inactive). For the same molecule, the GI50 (SF-268) was 20.6 µM (inactive), the GI50 (K562) was > 100 µM (inactive) and the GI50 (MOLT-4) was 42.2 µM (inactive). For the same molecule, the GI50 (SR) was 19.9 µM (inactive), the GI50 (OVCAR-8) was 26.9 µM (inactive) and the GI50 (OVCAR-4) was > 100 µM (inactive). The GI50 (SK-OV-3) was 13.3 µM (inactive), the GI50 (SNB-75) was 17.7 µM (inactive) and the GI50 (TK-10) was 38.5 µM (inactive). For the same molecule, the GI50 (CAKI-1) was 21.8 µM (inactive), the GI50 (RPMI-8226) was 63 µM (inactive) and the GI50 (UO-31) was 60.8 µM (inactive). For the same molecule, the GI50 (HL-60) was 59.6 µM (inactive), the GI50 (M14) was 13.3 µM (inactive) and the GI50 (BT-549) was 47.1 µM (inactive). For the same molecule, the GI50 (EKVX) was 12.8 µM (inactive), the GI50 (NCI-H23) was 50.9 µM (inactive) and the GI50 (SK-MEL-28) was 85.9 µM (inactive). The GI50 (MDA-MB-435) was 46.3 µM (inactive), the GI50 (Hs-578T) was 16.3 µM (inactive) and the GI50 (786-0) was 20.5 µM (inactive). The GI50 (UACC-257) was 39.2 µM (inactive), the GI50 (SK-MEL-5) was 29.9 µM (inactive) and the GI50 (HCC 2998) was 38.8 µM (inactive). The GI50 (NCI-H226) was 11.9 µM (inactive), the GI50 (SW-620) was 58.1 µM (inactive) and the GI50 (NCI-H460) was 21.8 µM (inactive). The GI50 (A498) was 28.2 µM (inactive), the GI50 (SK-MEL-2) was 12.2 µM (inactive) and the GI50 (SNB-19) was 36.1 µM (inactive). The GI50 (HCT-116) was 27.7 µM (inactive), the GI50 (HT-29) was 10.8 µM (inactive) and the GI50 (SF-539) was 23.5 µM (inactive). For the same molecule, the GI50 (SF-295) was 18.5 µM (inactive), the GI50 (T47D) was 8.04 µM (inactive) and the GI50 (MDA-MB-231) was 24.8 µM (inactive).
